Results: ChEMBL document CHEMBL3525916, “Investigation of figopitant and its metabolites in rat tissue by combining whole-body autoradiography with liquid extraction surface analysis mass spectrometry” (Drug Metab Dispos, 2012)

Test system: Rattus norvegicus
Experiment: Retention time in albino Wistar Hannover rat treated with 5 mg/kg, iv of [14C]figopitant
Type: ADME, organism-based
Design: dose 5 mg/kg, route intravenous
Conditions: in vivo

SMILES | Retention_time
CN(CCc1cc(C(F)(F)F)cc(C(F)(F)F)c1)C(=O)[C@@H](NCCN)c1ccccc1 | 11.9 min
CN(CCc1cc(C(F)(F)F)cc(C(F)(F)F)c1)C(=O)[C@H](c1ccccc1)N1CCNCC1 | 14.5 min
CN(CC(O)c1cc(C(F)(F)F)cc(C(F)(F)F)c1)C(=O)[C@H](c1ccccc1)N1CCN(CC2CC2)CC1 (stereo partly drawn) | 24.2 min
